In series [1] the test system is NB4 and NB4-AsR Acute Promyelocytic Leukemia cell lines. The experiment in a line: Myeloid differentiation (CD11b expression, NBT reduction test) with ATRA or low-dose ATO. It is filed as cell-based, human. The procedure: NB4 and NB4-AsR were seeded at 0.8×10^5 cells/mL in presence of vehicle (DMSO) or the PDE-4 inhibitor at the indicated doses for 30 minutes and then incubated with 0.1 μM and 1 μM of all-trans retinoic acid ([…]) promoting cell differentiation (see Chen GQ et al., Blood. 1997; 89(9):3345-53, which is incorporated herein by reference in its entirety). After 72 hours of treatment, early and late stage of differentiation was evaluated. More specifically, expression of the cell surface CD11b, an early-expressed maturation marker, was measured by flow cytometry using fluorescein isothiocyanate (FITC)-conjugated anti-CD11b antibody (Sigma Chemical Co.) according to the manufacturer's protocol. Late stage differentiation of leukemic cells was detected using the microscopic nitroblue tetrazolium (NBT) reduction test (Chen GQ et al., vide supra).
This assay is conducted by counting the cells containing blue NBT formazan deposits, which are formed by reduction of the membrane permeable, water-soluble, yellow-colored, nitroblue tetrazolium (NBT) by superoxide anions O2. Over 300 cells were counted per sample, and variation in replicates was routinely within 10%.

For series [2], the system named is Imatinib-sensitive (K562-SENS, LAMA-SENS, KCL22-SENS) and Imatinib-resistant (K562-RES, LAMA-RES, KCL22-RES and BAF3 p210-T315I) chronic myeloid leukemia (CML) …. Description: Apoptosis (sub-G1 propidium iodide or Annexin-V) with PDE-4 inhibitor plus ATO in CML cell lines. It is filed as cell-based, human. As for the experimental part: (§1) The Parental Acute Promyelocytic Leukemia (APL) cell line NB4 and the Arsenic resistant NB4-AsR cell line were seeded at 0.8×10^5 cells/mL of fresh RPMI 1640 medium (Sigma Aldrich), supplemented with 10% fetal calf serum, 2 mM L-glutamine, penicillin G (100 U/mL), streptomycin ([…]). Cells were pre-treated for 30 minutes with vehicle (DMSO), CHF-6001 (1 and 10 μM), Roflumilast (1 and 10 μM) or Piclamilast (1, and 50 μM) and then incubated with ATO at the indicated doses. After 72 hours cells were collected, stained with Annexin-V FITC (according to the manufacturer's recommendations—Bender MedSystems) and processed by flow cytometry (FACSCalibur, Becton Dickinson, San Josè, Calif.) to evaluate the percentage of apoptosis as described in Lunghi P et al., Leukemia. 2005; 19(2):234-44, which is incorporated herein by reference in its entirety.
The Imatinib-sensitive (K562-SENS, LAMA-SENS, KCL22-SENS) and Imatinib-resistant (K562-RES, LAMA-RES, KCL22-RES and BAF3 p210-T315I) chronic myeloid leukemia (CML) cell lines were cultured with the PDE-4 inhibitor and ATO as described in Example 1. After 72 hours cells were harvested, stained with Propidium Iodide to evaluate the percentage of cells with hypodiploid DNA content (sub-G1) or with Annexin-V FITC as described in Lunghi P et al Leukemia. 2005; 19(2):234-44, which is incorporated herein by reference in its entirety.

For series [3], the system named is Acute Promyelocytic Leukemia (APL) cell line NB4 and Arsenic resistant NB4-AsR cell line. Description: Annexin-V apoptosis assay with PDE-4 inhibitor pre-treatment plus ATO in APL cells. It is filed as cell-based, human. The procedure: as §1
Series [4] has as its system LAMA-RES, NB4 and NB4-AsR cell lines. The experiment in a line: C2/ATO-induced apoptosis (annexin V) in the presence of caspase inhibitors. As to conditions: caspase inhibitors 25 μM, 1 hour pre-treatment; 24 hours; FIG. 4. It is filed as cell-based, human. The text has this:
On the Y-axis the histograms represent the percentage of apoptotic cells measured by Annexin V staining (% ANNEXIN V+). NEG indicates peptide control Cbz-Phe-Ala-fluoromethyl ketone (Z-FA-FMK), CASPASE-8 IN, specific caspase-8 inhibitor Cbz-Ile-Glu(Ome)-Thr-Asp(Ome)-fluoromethyl ketone (Z-IETD-FMK), CASPASE-9 IN, specific caspase-9 inhibitor Cbz-Leu-Glu(Ome)-His-Asp(Ome)-fluoromethyl ketone (Z-LEHD-FMK), PANCASPASE IN, pancaspase inhibitor Cbz-Val-Ala-Asp(Ome)-fluoromethyl ketone (Z-VAD-FMK); CTR, control; C2, compound C2; ATO, arsenic trioxide.
LAMA-RES, NB4 and NB4-AsR cell lines were pretreated with selective caspase inhibitors for 1 hour before adding C2 and/or ATO. After 24 hours the percentage of apoptotic cells was determined by the annexin V method. More specifically, the caspase inhibitors are: NEG peptide control Cbz-Phe-Ala-fluoromethyl ketone (Z-FA-FMK), CASPASE-8 inhibitor Cbz-Ile-Glu(Ome)-Thr-Asp(Ome)-fluoromethyl ketone (Z-IETD-FMK), CASPASE-9 inhibitor Cbz-Leu-Glu(Ome)-His-Asp(Ome)-fluoromethyl ketone (Z-LEHD-FMK), and the PANCASPASE inhibitor Cbz-Val-Ala-Asp(Ome)-fluoromethyl ketone (Z-VAD-FMK), all provided from Alexis (San Diego, Calif., USA). All caspase inhibitors were dissolved in DMSO, stocked in aliquots at −20° C., and used at the final concentration of 25 μM.

In series [5] the test system is NB4 and NB4-AsR cell lines. The experiment in a line: Myeloid marker panel (CD33, CD38, CD11b, CD14, CD15) and NBT reduction with C2/ATRA. The class given is cell-based, human. The procedure: On the Y-axis the histograms represent, for each cell line, the percentage of myeloid differentiation measured using a panel of myeloid markers (CD33, CD38, CD11b, CD15, CD14) and nitroblue tetrazolium reduction test (% NBT+). Vehicle indicates Dimethyl sulfoxide (DMSO); C2, compound C2; CTR, control; ATRA, all-trans retinoic acid.
NB4 e NB4-AsR cell lines were cultured with C2/ATRA for 72 hours, after which cells were harvested for determination of NBT reduction and expression of differentiation-associated surface antigens CD33, CD38, CD11b, CD14 and CD15. Cytofluorimetric analysis of surface antigen expression was performed using the following monoclonal antibodies all provided by Sigma Chemical: fluorescein isothiocyanate (FITC)-conjugated anti-CD33 antibody, (FITC)-conjugated anti-CD38 antibody, (FITC)-conjugated anti-CD11b antibody, (FITC)-conjugated anti-CD 14 antibody and (FITC)-conjugated anti-CD15 antibody. Briefly, each antibody was incubated at the proper dilution with cell samples in PBS containing 1% BSA for 30 minutes at room temperature. Cells were then washed and resuspended with PBS and analyzed by flow cytometer.

Series [6] has as its system chronic lymphocytic leukemia (CLL) B-lymphocytes. As to conditions: in vitro; Mentz F et al., Br. J. Hematol. 1995; cited from earlier work.

The structures appear in SMILES notation. “Also recorded” adds a separate entry of the source.

The source of these data is patent US20130156865A1, “POTENTIATION INDUCED BY PDE4 INHIBITORS IN THE TREATMENT OF LEUKEMIA” (Chiesi Farmaceutici S.p.A., priority 2011, published 2013).

Turning to `CS(=O)(=O)Nc1ccc(C(=O)O[C@@H](Cc2c(Cl)c[n+]([O-])cc2Cl)c2ccc(OC(F)F)c(OCC3CC3)c2)cc1OCC1CC1` [Compound C2, (-)-3-Cyclopropylmethoxy-4-methanesulfonylamino-benzoic acid 1-(3-cyclopropylmethoxy-4-difluoromethoxy-phenyl)-2-(3,5-dichloro-1-oxy-pyridin-4-yl)-ethyl ester], the “expression of the myeloid marker CD11b (% CD11b+)” value in series [1] (72 hours, FIG. 6) was “upregulates the expression of the myeloid marker CD11b”. In addition, the “effectiveness versus Roflumilast or Piclamilast in potentiating the cytodifferentiating action of ATRA or ATO” value in series [1] (ATO-sensitive or ATO-resistant APL cell lines, same doses of comparator, P<0.001 to P<0.01) is recorded as “more effective than Roflumilast or Piclamilast”. The “potentiation of the cytodifferentiating action of ATRA and ATO” value in series [1] (C2 1 μM/10 μM + ATRA or + ATO 1 μM, P<0.001 versus either mono-treatment, NB4 and NB4-AsR, 72 hours) was “potentiates the cytodifferentiating action of ATRA and ATO”. Further, the “potentiation of the proapoptotic effects of ATO (% sub-G1 or % Annexin V+)” value in series [2] (C2 1 μM/10 μM + ATO 2 μM (ATO 1 μM in Baf3-T315I), 72 hours, P<0.001, P<0.05 in K562-RES, versus either mono-treatment, FIG. 2) is reported as “potentiates the proapoptotic effects of ATO”. Besides, the “effectiveness versus roflumilast or piclamilast in potentiating the proapoptotic effects of ATO” value in series [2] (CML cell lines, same doses of comparator + ATO, P<0.001 to P<0.05) is reported as “more effective than Roflumilast or Piclamilast”; in series [3] (APL cells incl. ATO-resistant, P<0.001 versus same doses of comparator + ATO, P<0.005 C2 1 μM versus comparator 10 μM) it was “more effective than CHF 5152 (roflumilast) or CHF 5859 (piclamilast)”. Moreover, the “potentiation of the proapoptotic effects of ATO (% Annexin V+ cells)” value in series [3] (C2 1 μM/10 μM + ATO 1 μM, 72 hours, P<0.001 versus either mono-treatment, FIG. 1) is “potentiates the proapoptotic effects of ATO”. In addition, the “enhancement of ATO-induced cytotoxicity and caspase dependence (% Annexin V+)” value in series [4] is listed as “strikingly enhances ATO-induced cytotoxicity in leukemia cells through a caspase-dependent mechanism”. Also, the “dose inducing CD38 and CD11b expression relative to piclamilast” value in series [5] (ATO-sensitive or ATO-resistant acute promyelocytic leukemia cells) was 5 fold lower. In addition, the “induction of the early myeloid markers CD38 and CD11b” value in series [5] (C2 as mono-treatment, ATO-sensitive or ATO-resistant APL cells, 72 hours, FIG. 7) was “capable of inducing the expressions of the early myeloid markers CD38 and CD11b; also recorded: induces upregulation of the myeloid markers (CD38 and CD11b); also recorded: able to partially induce an early myeloid differentiation”. Moreover, the “enhancement of the cytodifferentiating action of ATRA” value in series [5] (very low-dose ATRA, ATO-sensitive or ATO-resistant APL cell lines, 72 hours) is reported as “enhances the cytodifferentiating action of very low-dose of ATRA”.
Take `Cn1c(=O)c2[nH]cnc2n(C)c1=O` [theophylline]: the induction of apoptosis entry in series [6] is on record as “induce apoptosis”.
